Measured values reported in ChEMBL document CHEMBL1649223, “Efficacy of albaconazole against Candida albicans in a vaginitis model” (2009).
Converted amounts (≈) assume the structure as drawn.

Tests used:
Format in all cases: functional
[1] = system: Candida albicans; assay: Antifungal activity against Candida albicans isolate 03-2718 infected BALB/c mouse vaginitis model assessed as reduction in fungal load in vagina at 20 mg/kg, administered through oral gavage twice daily for 5 days measured on day 6 post inoculation
[2] = system: Candida albicans; assay: Antifungal activity against Candida albicans isolate 03-2718 infected BALB/c mouse vaginitis model assessed as reduction in fungal load in vagina at 20 mg/kg, administered through oral gavage once daily for 5 days measured on day 6 post inoculation
[3] = system: Candida albicans; assay: Antifungal activity against Candida albicans isolate 03-2718 infected BALB/c mouse vaginitis model assessed as reduction in fungal load in vagina at 20 mg/kg, administered through oral gavage twice daily for 5 days measured on day 1 post inoculation
[4] = system: Candida albicans; assay: Antifungal activity against Candida albicans isolate 03-2718 infected BALB/c mouse vaginitis model assessed as reduction in fungal load in vagina at 20 mg/kg, administered through oral gavage once daily for 5 days measured on day 1 post inoculation
[5] = system: Candida albicans; assay: Antifungal activity against Candida albicans isolate 03-2718 infected BALB/c mouse vaginitis model assessed as reduction in fungal load in vagina at 40 mg/kg, administered through oral gavage twice daily for 5 days measured on day 6 post inoculation
[6] = system: Candida albicans; assay: Antifungal activity against Candida albicans isolate 03-2718 infected BALB/c mouse vaginitis model assessed as reduction in fungal load in vagina at 40 mg/kg, administered through oral gavage once daily for 5 days measured on day 6 post inoculation
[7] = system: Candida albicans; assay: Antifungal activity against Candida albicans isolate 03-2718 infected BALB/c mouse vaginitis model assessed as reduction in fungal load in vagina at 10 mg/kg, administered through oral gavage twice daily for 5 days measured on day 6 post inoculation
[8] = system: Candida albicans; assay: Antifungal activity against Candida albicans isolate 03-2718 infected BALB/c mouse vaginitis model assessed as reduction in fungal load in vagina at 10 mg/kg, administered through oral gavage once daily for 5 days measured on day 6 post inoculation
[9] = system: Candida albicans; assay: Antifungal activity against Candida albicans isolate 03-2718 infected BALB/c mouse vaginitis model assessed as reduction in fungal load in vagina at 5 mg/kg, administered through oral gavage twice daily for 5 days measured on day 6 post inoculation
[10] = system: Candida albicans; assay: Antifungal activity against Candida albicans isolate 03-2718 infected BALB/c mouse vaginitis model assessed as reduction in fungal load in vagina at 5 mg/kg, administered through oral gavage once daily for 5 days measured on day 6 post inoculation
[11] = system: Candida albicans; assay: Antifungal activity against Candida albicans isolate 03-2718 infected BALB/c mouse vaginitis model assessed as reduction in fungal load in vagina at 40 mg/kg, administered through oral gavage twice daily for 5 days measured on day 1 post inoculation
[12] = system: Candida albicans; assay: Antifungal activity against Candida albicans isolate 03-2718 infected BALB/c mouse vaginitis model assessed as reduction in fungal load in vagina at 40 mg/kg, administered through oral gavage once daily for 5 days measured on day 1 post inoculation
[13] = system: Candida albicans; assay: Antifungal activity against Candida albicans isolate 03-2718 infected BALB/c mouse vaginitis model assessed as reduction in fungal load in vagina at 10 mg/kg, administered through oral gavage twice daily for 5 days measured on day 1 post inoculation
[14] = system: Candida albicans; assay: Antifungal activity against Candida albicans isolate 03-2718 infected BALB/c mouse vaginitis model assessed as reduction in fungal load in vagina at 10 mg/kg, administered through oral gavage once daily for 5 days measured on day 1 post inoculation
[15] = system: Candida albicans; assay: Antifungal activity against Candida albicans isolate 03-2718 infected BALB/c mouse vaginitis model assessed as reduction in fungal load in vagina at 5 mg/kg, administered through oral gavage twice daily for 5 days measured on day 1 post inoculation
[16] = system: Candida albicans; assay: Antifungal activity against Candida albicans isolate 03-2718 infected BALB/c mouse vaginitis model assessed as reduction in fungal load in vagina at 5 mg/kg, administered through oral gavage once daily for 5 days measured on day 1 post inoculation
[17] = system: Candida albicans; assay: Antifungal activity against Candida albicans isolate 03-2718 after 48 hrs; conditions: isolate 03-2718, 48 h

Row | SMILES | log10cfu [1] | log10cfu [2] | log10cfu [3] | log10cfu [4] | log10cfu [5] | log10cfu [6] | log10cfu [7] | log10cfu [8] | log10cfu [9] | log10cfu [10] | log10cfu [11] | log10cfu [12] | log10cfu [13] | log10cfu [14] | log10cfu [15] | log10cfu [16] | MIC [17]
1 | OC(Cn1cncn1)(Cn1cncn1)c1ccc(F)cc1F [FLUCONAZOLE] | 3.74 | 4.51 | 5.9 | 5.51 |  |  |  |  |  |  |  |  |  |  |  |  | 
2 | C[C@@H](n1cnc2cc(Cl)ccc2c1=O)[C@](O)(Cn1cncn1)c1ccc(F)cc1F [ALBACONAZOLE] | 3.34 | 3.81 | 5.48 | 5.13 | 2.24 | 3.13 | 3.83 | 4.33 | 4.82 | 4.99 | 5.79 | 5.62 | 5.43 | 5.07 | 5.46 | 5.06 | 0.5 µg/mL (≈ 1.16 µM)
